Patent US10208015B2, “Aryl-triazolyl pyridines as pest control agents” (BAYER ANIMAL HEALTH GMBH, priority 2014, dated 2019)

Columns and labels:
Musca domestica = Musca domestica test; type: in vivo; details: application rate 100 ppm, adult houseflies, after 2 days
Description: (§1) • Solvent: dimethyl sulphoxide
(§2) To produce a suitable preparation of active compound, 10 mg of active compound are mixed with 0.5 ml of dimethyl sulphoxide, and the concentrate is diluted with water to the desired concentration.
Vessels containing a sponge treated with sugar solution and the active compound preparation of the desired concentration are populated with 10 adult houseflies (Musca domestica).
After 2 days, the kill in % is determined. 100% means that all of the flies have been killed; 0% means that none of the flies have been killed.

[1] = logP by HPLC on reversed-phase column (C18), EEC Directive 79/831 Annex V.A8; type: physicochemical; details: HPLC, C18, acetonitrile (0.1% formic acid)/water (0.09% formic acid) gradient
Spodoptera frugiperda = Spodoptera frugiperda spray test; type: in vivo; details: application rate 100 g/ha, after 7 days
Description: Spodoptera Frugiperda—Spray Test
(§3) • Solvent: 78.0 parts by weight of acetone • 1.5 parts by weight of dimethylformamide • Emulsifier: alkylaryl polyglycol ether
(§4) To produce a suitable preparation of active compound, 1 part by weight of active compound is dissolved using the stated parts by weight of solvent and made up with water containing an emulsifier concentration of 1000 ppm until the desired concentration is attained. To produce further test concentrations, the preparation is diluted with emulsifier-containing water.
Leaf discs of maize (Zea mays) are sprayed with an active compound preparation of the desired concentration and, after drying, populated with caterpillars of the armyworm (Spodopterafrugiperda).
After 7 days, the efficacy in % is determined. 100% means that all the caterpillars have been killed; 0% means that no caterpillars have been killed.

Lucilia cuprina = Lucilia cuprina test; type: in vivo; details: application rate 100 ppm, L1 larvae, after 2 days
Description: as §1, §2
About 20 L1 larvae of the Australian sheep blowfly (Lucilia cuprina) are transferred into a test vessel containing minced horsemeat and the active compound preparation of the desired concentration.
After 2 days, the kill in % is determined. 100% means that all the larvae have been killed; 0% means that no larvae have been killed.

Ctenocephalides felis [2] = assay: Ctenocephalides felis oral test; type: in vivo; details: application rate 100 ppm in citrated cattle blood, after 2 days
Description: Ctenocephalides felis—Oral Test • Solvent: dimethyl sulphoxide […] Dilution with citrated cattle blood gives the desired concentration. About 20 unfed adult cat fleas (Ctenocephalides felis) are placed into a chamber which is closed at the top and bottom with gauze. A metal cylinder whose bottom end is closed with parafilm is placed onto the chamber. The cylinder contains the blood/active compound preparation, which can be imbibed by the fleas through the parafilm membrane.

Boophilus microplus = Boophilus microplus injection test; type: in vivo; details: application rate 20 μg/animal, assessed after 7 days
Description: Boophilus microplus—Injection Test • Solvent: dimethyl sulphoxide […] The animals are transferred into dishes and kept in a climate-controlled room. Efficacy is assessed after 7 days by laying of fertile eggs. Eggs which are not visibly fertile are stored in a climate-controlled cabinet until the larvae hatch after about 42 days.

Phaedon cochleariae = Phaedon cochleariae spray test; type: in vivo; details: application rate 100 g/ha, after 7 days
Description: Phaedon Cochleariae—Spray Test
as §3, §4
After 7 days, the efficacy in % is determined. 100% means that all the beetle larvae have been killed; 0% means that no beetle larvae have been killed.

Tetranychus urticae = Tetranychus urticae spray test, OP-resistant; type: in vivo; details: after 6 days
Description: Tetranychus Urticae—Spray Test, OP-Resistant
as §3
To produce further test concentrations, the preparation is diluted with emulsifier-containing water.
After 6 days, the efficacy in % is determined. 100% means that all the spider mites have been killed; 0% means that none of the spider mites have been killed.

Ctenocephalides felis [3] = assay: Ctenocephalides felis in vitro contact test with adult cat fleas; type: in vivo; details: application rate 500 g/ha (5 μg/cm^2), after 48 h
Description: Ctenocephalides felis—In Vitro Contact Tests with Adult Cat Fleas
(§5) For the coating of the test tubes, 9 mg of active compound are first dissolved in 1 ml of acetone p.a. and then diluted to the desired concentration with acetone p.a. 250 μl of the solution are distributed homogeneously on the inner walls and the base of a 25 ml test tube by turning and rocking on an orbital shaker (rocking rotation at 30 rpm for 2 h). With 900 ppm active compound solution and internal surface 44.7 cm^2, given homogeneous distribution, an area-based dose of 5 μg/cm^2 is achieved.
After the solvent has evaporated off, the tubes are populated with 5-10 adult cat fleas (Ctenocephalides felis), sealed with a perforated plastic lid and incubated in a horizontal position at room temperature and ambient humidity. After 48 h, efficacy is determined. To this end, the test tubes are stood upright and the fleas are knocked to the base of the tube. Fleas which remain motionless at the base or move in an uncoordinated manner are considered to be dead or moribund.
100% efficacy means that all the fleas were dead or moribund. 0% efficacy means that no fleas were harmed.

[4] = tested on: Boophilus microplus Parkhurst strain, SP-resistant; assay: Boophilus microplus dip test; type: in vivo; details: application rate 100 ppm, assessed after 7 days
Description: Boophilus microplus—Dip Test
• Test animals: cattle ticks (Boophilus microplus) Parkhurst strain, SP-resistant • Solvent: dimethyl sulphoxide
10 mg of active compound are dissolved in 0.5 ml of dimethyl sulphoxide. To produce a suitable formulation, the active compound solution is diluted with water to the concentration desired in each case.
This active compound preparation is pipetted into tubes. 8-10 engorged adult female cattle ticks (Boophilus microplus) are transferred into a further tube with holes. The tube is immersed into the active compound preparation, and all the ticks are completely wetted. After the liquid has run out, the ticks are transferred on filter discs into plastic dishes and stored in a climate-controlled room.
Efficacy is assessed after 7 days by laying of fertile eggs. Eggs which are not visibly fertile are stored in a climate-controlled cabinet until the larvae hatch after about 42 days. An efficacy of 100% means that none of the ticks has laid any fertile eggs; 0% means that all the eggs are fertile.

Rhipicephalus sanguineus = Rhipicephalus sanguineus in vitro contact test with adult brown dog ticks; type: in vivo; details: application rate 500 g/ha (5 μg/cm^2), after 48 h
Description: Rhipicephalus sanguineus—In Vitro Contact Tests with Adult Brown Dog Ticks
as §5
After the solvent has evaporated off, the tubes are populated with 5-10 adult dog ticks (Rhipicephalus sanguineus), sealed with a perforated plastic lid and incubated in a horizontal position in the dark at room temperature and ambient humidity. After 48 h, efficacy is determined. To this end, the ticks are knocked to the floor of the tube and incubated on a hotplate at 45-50° C. for not more than 5 min. Ticks which remain motionless on the floor or move in such an uncoordinated manner that they are unable to deliberately avoid the heat by climbing upwards are considered to be dead or moribund.
An efficacy of 100% means that all the ticks were dead or moribund. 0% efficacy means that none of the ticks had been harmed.

Myzus persicae = Myzus persicae spray test; type: in vivo; details: application rate 100 g/ha, after 6 days
Description: Myzus Persicae—Spray Test […] To produce further test concentrations, the preparation is diluted with emulsifier-containing water. Discs of Chinese cabbage leaves (Brassica pekinensis) infested by all stages of the green peach aphid (Myzus persicae) are sprayed with an active compound preparation of the desired concentration.

| Structure (SMILES) | efficacy (kill in %) (Musca domestica) [%] | logP [1] | efficacy in % (Spodoptera frugiperda) [%] | efficacy (kill in %) (Lucilia cuprina) [%] | efficacy (kill in %) (Ctenocephalides felis [2]) [%] | efficacy (laying of fertile eggs) (Boophilus microplus) [%] | efficacy in % (Phaedon cochleariae) [%] | efficacy in % (Tetranychus urticae; application rate 100 g/ha) [%] | efficacy (fleas dead or moribund) (Ctenocephalides felis [3]) [%] | efficacy (laying of fertile eggs) [4] [%] | efficacy in % (Tetranychus urticae; application rate 20 g/ha) [%] | efficacy (ticks dead or moribund) (Rhipicephalus sanguineus) [%] | efficacy in % (Myzus persicae) [%] |
| --- | --- | --- | --- | --- | --- | --- | --- | --- | --- | --- | --- | --- | --- |
| COc1ncc(-c2cn(-c3c(Cl)cc(C(F)(C(F)(F)F)C(F)(F)F)cc3Cl)nn2)cc1C(=O)NC1(C#N)CC1 [Example 4] | 100 | 4.3 | 100 | 100 | 100 | 100 | 100 |  |  |  |  |  |  |
| Cc1ncc(-c2cn(-c3c(Cl)cc(C(F)(C(F)(F)F)C(F)(F)F)cc3Cl)nn2)cc1C(=O)NC1(C#N)CC1 [Example 6] | 100 | 3.5 | 100 | 100 | 100 | 100 | 100 | 100 | 100 | 100 |  |  |  |
| COc1ncc(-c2cn(-c3c(C)cc(C(F)(C(F)(F)F)C(F)(F)F)cc3C)nn2)cc1C(=O)NC1(C#N)CC1 [Example 7] |  | 4.2 | 100 | 100 | 100 | 100 | 100 |  |  |  |  |  |  |
| COc1ncc(-c2cn(-c3c(C)cc(C(F)(C(F)(F)F)C(F)(F)F)cc3C)nn2)cc1C(=O)NC1CC1 [Example 11] | 100 | 4.3 | 100 | 100 | 100 | 100 | 100 |  |  |  | 90 |  |  |
| Cc1cc(C(F)(C(F)(F)F)C(F)(F)F)cc(C(F)(F)F)c1-n1cc(-c2cnc(Cl)c(C(=O)NC3(C#N)CC3)c2)nn1 [Example 14] | 100 | 3.9 | 100 | 90 | 100 | 100 | 100 | 100 | 80 | 100 |  | 100 |  |
| N#CC1(NC(=O)c2cc(-c3cn(-c4c(Cl)cc(C(F)(C(F)(F)F)C(F)(F)F)cc4C(F)(F)F)nn3)cnc2Cl)CC1 [Example 17] | 100 | 3.9 |  | 100 | 100 | 100 | 100 | 100 | 100 | 100 |  |  |  |
| CCc1cc(C(F)(C(F)(F)F)C(F)(F)F)cc(C)c1-n1cc(-c2cnc(Cl)c(C(=O)N(C)C3CC3)c2)nn1 [Example 19] | 80 | 4.6 |  | 100 | 100 | 100 |  |  |  | 100 |  |  |  |
| CCc1cc(C(F)(C(F)(F)F)C(F)(F)F)cc(C)c1-n1cc(-c2cnc(Cl)c(C(=O)NC3CC3)c2)nn1 [Example 20] |  | 4.1 |  | 100 | 100 | 100 |  |  |  | 100 |  |  |  |
| Cc1cc(C(F)(C(F)(F)F)C(F)(F)F)cc(Br)c1-n1cc(-c2cnc(Cl)c(C(=O)N(C)C3CC3)c2)nn1 [Example 21] | 100 | 4.4 |  | 100 | 100 | 100 |  |  |  | 100 |  |  |  |
| Cc1cc(C(F)(C(F)(F)F)C(F)(F)F)cc(Br)c1-n1cc(-c2cnc(Cl)c(C(=O)NC3CC3)c2)nn1 [Example 22] | 100 | 3.9 |  | 100 | 100 | 100 |  |  |  | 100 |  |  |  |
| CCNC(=O)c1cc(-c2cn(-c3c(C)cc(C(F)(C(F)(F)F)C(F)(F)F)cc3CC)nn2)cnc1Cl [Example 25] | 80 | 4.1 |  | 100 | 100 | 100 |  |  |  | 100 |  |  |  |
| CCNC(=O)c1cc(-c2cn(-c3c(C)cc(C(F)(C(F)(F)F)C(F)(F)F)cc3Br)nn2)cnc1Cl [Example 27] | 100 | 3.9 |  | 100 | 100 | 100 |  |  |  | 100 |  |  |  |
| O=C(NC1CC1)c1cc(-c2cn(-c3c(Cl)cc(C(F)(C(F)(F)F)C(F)(F)F)cc3OC(F)(F)F)nn2)cnc1Cl [Example 33] | 100 | 4.1 |  | 100 | 100 | 100 |  |  |  | 100 |  |  |  |
| N#CC1(NC(=O)c2cc(-c3cn(-c4c(Cl)cc(C(F)(C(F)(F)F)C(F)(F)F)cc4OC(F)(F)F)nn3)cnc2Cl)CC1 [Example 34] | 100 | 4.0 |  | 100 | 100 | 100 | 100 | 100 |  |  |  |  |  |
| CN(C(=O)c1cc(-c2cn(-c3c(Cl)cc(C(F)(C(F)(F)F)C(F)(F)F)cc3OC(F)(F)F)nn2)cnc1Cl)C1CC1 [Example 35] | 100 | 4.6 | 100 | 100 | 100 | 100 | 100 | 100 |  |  |  |  | 90 |
